Data reported in paper PMC6711809 (Bioorganic & medicinal chemistry letters, 2019).

Biological target: HIV-1 protease (Human immunodeficiency virus type 1 group M subtype B, UniProt P04585)
Test: HIV-1 protease inhibitory activity
Format: biochemical
Settings: for fold better inhibitory activity than 3i: compared with 3i

In the case of `COCCOc1c(N[C@@H](Cc2ccccc2)[C@H](O)CN(CC(C)C)S(=O)(=O)c2ccc(OC)cc2)c(=O)c1=O` [Inhibitor 3b], the “loss of protease inhibitory activity relative to 3a” value (compared with 3a) is reported as “over 4 fold”.
With `COc1ccc(S(=O)(=O)N(CC(C)C)C[C@@H](O)[C@H](Cc2ccccc2)Nc2c(N(C)[C@H]3CCOC3)c(=O)c2=O)cc1` [Inhibitor 3g] the “potency enhancement over compound 3e” value (compared with 3e) was 15 fold.
In the case of `COc1ccc(S(=O)(=O)N(CC(C)C)C[C@@H](O)[C@H](Cc2ccccc2)Nc2c(N(C)[C@@H]3CCOC3)c(=O)c2=O)cc1` [Inhibitor 3h], the “fold more potent than 3g” value (compared with 3g) is reported as “over 775 fold”.
`COc1ccc(S(=O)(=O)N(CC(C)C)C[C@@H](O)[C@H](Cc2ccccc2)Nc2c(N[C@@H]3CO[C@@H]4OCC[C@@H]43)c(=O)c2=O)cc1` [Inhibitor 3j] was tested, and the “fold better inhibitory activity than 3i” value was about 10 fold.
With `COc1ccc(S(=O)(=O)N(CC(C)C)C[C@@H](O)[C@H](Cc2ccccc2)Nc2c(N(C)[C@H]3CO[C@H]4OCC[C@H]43)c(=O)c2=O)cc1` [Inhibitor 3k] the “fold better inhibitory activity than 3i” value was “over 10 fold”.
